Measured values taken from patent US5925769A, “Acetylenic 1,5-diarylpyrazoles as antiinflammatory agents” (Ortho Pharmaceutical, Corp., priority 1998, dated 1999).

Key:
5-LO = experiment: Procedure IV: ex vivo eicosanoid synthesis assay using dogs, 5-LO (LTB4); type: in vivo; conditions: dog, oral, 5 mg/kg
Experimental: (§1) Adult beagle or mongrel dogs (10-15 kg) of either sex were fasted overnight prior to the initiation of each experiment. The forelimb was clipped and swabbed with an alcohol prep (70% isopropanol). Blood was drawn by venipuncture into syringes containing lithium heparin (Starstead, Newton, N.C.) immediately prior to administration of compound or vehicle and then at various intervals following dosing. The test compound was administered orally as a suspension in 0.5% methocel. At various times after dosing, blood samples were drawn and placed on an electric rocker platform to assure complete and continuous mixing. White blood cell (wbc) counts were performed using a Sysmex hematology analyzer. This was done in an effort to normalize the number of leukocytes to be stimulated with calcium ionophore. A 1.0 mL aliquot of whole blood was challenged with 50 μL of a 2.6×10^-5 M solution of calcium ionophore A23187 (Calbiochem, La Jolla, Calif.) prepared in DMSO and diluted in HBSS. After a 15 minute incubation at 37° C., the reaction was stopped by placing the samples in an ice bath (4° C.) for 5 minutes and then centrifuging at 11,000×g for 5 minutes to separate the plasma fraction from blood cells. The plasma fraction was removed, diluted in an appropriate buffer, and analyzed for the presence of LTB4 and TxB2 by standard RIA techniques.

[1] = molecular target: T1, Sheep seminal vesicle (SSV) cyclooxygenase (Ovis aries, UniProt P05979); experiment: Procedure I: inhibition of sheep seminal vesicle (SSV) cyclooxygenase; type: biochemical; conditions: SSV cyclooxygenase; read-out: Proc. I IC50
T1 construct: Sheep seminal vesicle (SSV) cyclooxygenase (95% pure); purchased Biomol (Plymouth Meeting, PA); host or cells: sheep seminal vesicle
T1 sequence (P05979 25-600): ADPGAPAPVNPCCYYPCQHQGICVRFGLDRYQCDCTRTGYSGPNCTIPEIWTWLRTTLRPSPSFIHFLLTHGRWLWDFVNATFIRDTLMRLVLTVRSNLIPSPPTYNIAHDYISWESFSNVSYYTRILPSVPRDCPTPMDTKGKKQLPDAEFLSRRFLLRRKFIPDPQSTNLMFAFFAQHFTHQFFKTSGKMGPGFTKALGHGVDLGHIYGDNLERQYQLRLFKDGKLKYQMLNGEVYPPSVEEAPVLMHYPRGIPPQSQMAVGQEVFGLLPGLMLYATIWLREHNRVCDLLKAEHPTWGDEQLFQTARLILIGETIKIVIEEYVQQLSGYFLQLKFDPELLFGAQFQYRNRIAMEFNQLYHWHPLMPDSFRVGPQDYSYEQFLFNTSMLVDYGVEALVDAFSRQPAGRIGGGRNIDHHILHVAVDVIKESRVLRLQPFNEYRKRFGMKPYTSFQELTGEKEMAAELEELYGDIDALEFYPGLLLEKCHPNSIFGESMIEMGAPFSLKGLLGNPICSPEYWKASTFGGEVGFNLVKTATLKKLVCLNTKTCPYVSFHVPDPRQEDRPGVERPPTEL
Outline: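 Turnover of [1-14C]-arachidonic acid by SSV cyclooxygenase ran 20 min after a 5 min preincubation at 37° C with test compound. Products (PGD2, PGE2, etc.) were extracted, resolved by TLC and quantified by radio-imaging; inhibition came from comparing curve areas with and without compound.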

CO = experiment: Procedure IV: ex vivo eicosanoid synthesis assay using dogs, CO (TxB2); type: in vivo; conditions: dog, oral, 5 mg/kg
Experimental: as §1

IC50 [1]: 1.02 µM
SMILES: COc1ccc(-n2nc(C#CCN(O)C(N)=O)cc2-c2ccc(C)cc2)cc1 [Cpd 1, N-Hydroxy-N-(1(1-(4-methoxyphenyl)-5-(4-methylphenyl)pyrazol-3-yl)-1-propyn-3-yl)urea]
% inh 5-LO (5-LO; 1 h): 56%
% inh 5-LO (5-LO; 2 h): 53%
% inh 5-LO (5-LO; 4 h): 32%
% inh 5-LO (5-LO; 8 h): 15%
% inh 5-LO (5-LO; 24 h): 10%
% inh CO (CO; 1 h): 86%
% inh CO (CO; 2 h): 82%
% inh CO (CO; 4 h): 76%
% inh CO (CO; 8 h): 46%
% inh CO (CO; 24 h): 11%
